Experimental data published in PubChem BioAssay (NCI).
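Compound exposure: 48 hours, 5 concentrations, 96-well plates. The concentration for 50% growth inhibition is given as GI50. Definition used: TGI = concentration required for complete inhibition of growth.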

Legend:
Assay in all cases: NCI tumour cell line growth inhibition, 48 h
[1] = tested on: T-47D breast
[2] = tested on: SK-OV-3 ovarian
[3] = tested on: NCI-H460 lung
[4] = tested on: EKVX NSCLC
[5] = tested on: RXF 393 renal
[6] = tested on: HOP-92 NSCLC
[7] = tested on: SF-539 CNS
[8] = tested on: NCI-H226 lung
[9] = tested on: NCI-H522 lung
[10] = tested on: PC-3 prostate

SMILES | TGI [1] | TGI [2] | TGI [3] | TGI [4] | TGI [5] | TGI [6] | TGI [7] | TGI [8] | TGI [9] | TGI [10] | GI50 [1] | GI50 [2] | GI50 [4] | GI50 [5] | GI50 [6] | GI50 [7] | GI50 [8] | GI50 [9] | GI50 [10]
COc1cc(C2c3cc4c(cc3OC(N3CCNCC3)C2C)OCO4)cc(OC)c1OC (stereo not drawn) | > 100 µM | > 23.4 µM | 10.9 µM | > 100 µM | 0.99 µM | 24.8 µM | 1.94 µM | 8.78 µM | 8.32 µM | > 34.4 µM | – | – | – | – | – | – | – | – | –
O=C(Nc1ccccc1)c1cc(S(=O)(=O)N2CCNNC2=O)c(S)cc1Cl | 83.9 µM | – | > 100 µM | > 100 µM | 74.4 µM | > 100 µM | > 100 µM | > 100 µM | > 100 µM | > 100 µM | – | – | – | – | – | – | – | – | –
COc1ccc(/C=C/C2=NN(c3cccc(S(=O)(=O)O)c3)C3(C2)SCC(=O)N3c2nc3ccccc3s2)cc1 (stereo not drawn) | 87.1 µM | – | > 100 µM | > 100 µM | > 100 µM | > 100 µM | > 100 µM | > 100 µM | > 100 µM | > 100 µM | – | – | – | – | – | – | – | – | –
CC(=N\N)/C(C)=N/N=C(C)/C(C)=N/N=C(C)/C(C)=N/N | > 100 µM | > 100 µM | > 100 µM | > 100 µM | > 100 µM | > 100 µM | > 100 µM | > 100 µM | > 100 µM | > 100 µM | – | – | – | – | – | – | – | – | –
N#C[C@H](c1nc2ccccc2s1)c1nc2ccccc2nc1Cl | > 100 µM | 73 µM | 47.3 µM | > 100 µM | 32 µM | 37.9 µM | > 100 µM | > 100 µM | > 100 µM | > 100 µM | – | – | – | – | – | – | – | – | –
CCOC(=O)Oc1ccc2c(c1)c(=O)c1c(NCCN(CC)CC)ccc3nnn2c31 | 29.2 µM | 22.6 µM | 9.44 µM | 19.9 µM | 18.8 µM | 21.4 µM | 13.5 µM | 7.71 µM | 6.61 µM | 15.1 µM | – | – | – | – | – | – | – | – | –
CNc1ncc(-c2nnnn2-c2ccccc2)c(CN(C)C)n1 | > 100 µM | > 100 µM | > 100 µM | > 100 µM | > 100 µM | > 100 µM | > 100 µM | > 100 µM | > 100 µM | > 100 µM | – | – | – | – | – | – | – | – | –
Oc1[nH]c2ccccc2c1/C=c1/cc2c(c(-c3ccc(F)cc3)n1)=Nc1ccccc1-2 | 2.13 µM | 3.15 µM | – | 72.7 µM | 1.96 µM | 0.981 µM | 1.81 µM | 10.7 µM | 0.99 µM | 1.88 µM | 0.501 µM | 0.848 µM | 3.01 µM | 0.634 µM | 0.162 µM | 0.477 µM | 1.52 µM | 0.218 µM | 0.317 µM
S=C(Nc1ccc2cn[nH]c2c1)Nc1ccc2cn[nH]c2c1 | > 100 µM | > 100 µM | > 100 µM | > 100 µM | > 100 µM | > 100 µM | > 100 µM | > 100 µM | > 100 µM | > 100 µM | – | – | – | – | – | – | – | – | –
COc1ccccc1C[C@@H]1OC2(C=CC(=O)C=C2)O[C@H]1Cc1ccccc1OC | > 50 µM | 24.5 µM | > 50 µM | 13 µM | 3.81 µM | 20.1 µM | 15.6 µM | 16.8 µM | – | 20.6 µM | – | – | – | – | – | – | – | – | –
COc1ccc(/C=N/n2cnc3[nH]c(C)c(Cc4ccccc4)c3c2=N)cc1 | > 100 µM | > 100 µM | > 100 µM | > 100 µM | 79.3 µM | > 100 µM | – | > 100 µM | > 100 µM | > 100 µM | – | – | – | – | – | – | – | – | –
O=C1c2cn[nH]c2C(c2ccccc2)N1c1ccccc1 (stereo not drawn) | > 10 µM | > 10 µM | > 10 µM | > 10 µM | > 10 µM | > 10 µM | > 10 µM | > 10 µM | > 10 µM | > 10 µM | – | – | – | – | – | – | – | – | –
Cc1ccc2c(c1)C(=O)C(C1OC(=O)c3ccccc31)C2 (stereo not drawn) | > 100 µM | > 100 µM | > 100 µM | > 100 µM | > 100 µM | > 100 µM | > 100 µM | > 100 µM | > 100 µM | > 100 µM | – | – | – | – | – | – | – | – | –
CCOc1cc(NC(C)=O)ccc1C(=O)NN1C(=O)CSC1c1ccccc1 (stereo not drawn) | > 100 µM | > 100 µM | > 100 µM | > 100 µM | > 100 µM | > 100 µM | > 100 µM | > 100 µM | > 100 µM | > 100 µM | – | – | – | – | – | – | – | – | –
C[Si](C)(c1ccccc1)[C@H]1CCCC=C1CCNC1c2ccccc2CCc2ccccc21 | > 100 µM | > 100 µM | > 100 µM | > 100 µM | > 100 µM | > 100 µM | > 100 µM | > 100 µM | > 100 µM | > 100 µM | – | – | – | – | – | – | – | – | –
O=c1cnn(CCOCP(=O)(O)O)c(=O)[nH]1 | > 100 µM | – | > 100 µM | > 100 µM | > 100 µM | > 100 µM | > 100 µM | > 100 µM | > 100 µM | > 100 µM | – | – | – | – | – | – | – | – | –
